Assay results from patent US10821091B2, “Retinoid compositions and methods of increasing immune cell-mediated killing of IDH mutant cancer cells” (UNIVERSITY OF PITTSBURGH—OF THE COMMONWEALTH SYSTEM OF …, priority 2017, dated 2020).

Experiments:
[1] = mouse, in vivo
Description: Mice. 6-8 week old Balb/c nude mice (CAnN.Cg-Foxn1nu/Crl) were purchased from Charles River Laboratories. Mice were injected with 10^6 IDH WT or mutant primary glioma cells sub-cutaneously in the right flank. When the tumors were about 25 mm^2, ATRA treatment was started. 10 mg/Kg ATRA was administered to mice intra-peritoneally (i.p.) every alternate day until termination of the experiment. DMSO-treated mice were used as controls. The mice were monitored for signs of drug toxicity such as weight-loss, lethargy, skin lesions and diarrhea. The tumors were measured every 3 days, and the mice were sacrificed when the tumors were about 400 mm^2. For NK depletion experiments, 6-week old B6 nude mice (B6.Cg-Foxn1nu/J) were purchased from The Jackson Laboratory. NK depletion was performed by injecting mice with 200 μg of anti-NK1.1 antibody (Biolegend) i.p. on the day ATRA treatment was started. Mice injected with 200 μg of an isotype antibody were used as controls. Mice were bled and evaluated for circulating NKs by flow cytometry.
Retinoic acid has been used as a chemotherapeutic agent in a wide variety of cancers, in pre-clinical as well as clinical applications. 13-cis-RA is the most common form of RA used in clinics, and is effective in a variety of neoplasms. Therefore, the efficacy of 13-cis RA was compared with ATRA and Bexarotene (a synthetic retinoic acid analogue) in IDH mutant gliomas.

[2] = test system: RBP1-transduced IDH mutant cells; test: RBP1 overexpression with retinol: NK cytotoxicity and gene expression; format: cell-based, human
Description: For RBP1 overexpression studies, IDH mutant glioma cells were transduced with RBP1 expressing lentiviral vectors (Origene Inc) for 3 hours. The cells were maintained in CM containing 10 μg/ml Puromycin to select for lentivirus-transduced cells. Cells transduced with a mock lentiviral vector were used as controls.
NK cytotoxicity assay. The flow cytometric CFSE/7-AAD cytotoxicity assay was performed as previously described with slight modifications. Astrocytes or Glioma cells (5×10^5) were labeled with 500 nM CFSE (from a 1 mM stock solution in dimethyl sulfoxide [Sigma] stored at −20° C.) in PBS for 15 min at 37° C. The cells were then washed twice in complete medium and used immediately for the cytotoxicity assay. The CFSE-labeled target cells (25,000 cells) were used at E (effector):T (target) ratios of 1:10. After 6 h incubation, the cells were stained with 0.25 μg/ml of 7-AAD and analyzed by flow cytometry.
Quantitative Real time RT-PCR. 5×10^5 IDH mutant and WT astrocytes, as well as patient glioma cells were lyzed in Trizol and RNA was extracted from the cells using the Chloroform extraction method. cDNA was transcribed from the RNA using iScript cDNA synthesis kit (BioRad). Real-time PCR was performed on an CFX96 Touch™ Real-Time PCR Detection System (Bio-Rad) equipped with a 96-well reaction plate. Briefly, 2 μL cDNA was added to 5 μL of the 2×SYBR Green PCR mastermix (Thermo Scientific), 800 nM of each primer, and water was added to 10 μL. The thermal denaturation protocol was run at the end of the PCR to determine the number of products that were present in the reaction. Reactions were typically run in triplicates. The cycle number at which the reaction crossed an arbitrarily-placed threshold (CT) was determined for each gene and the relative amount of each gene to 18 S rRNA was described using the equation 2^−ΔCT where ΔCT=(CTtargetRNA−CT18S rRNA).
RBP1 overexpression reverses immune evasion in IDH mutant gliomas. […] Cells were analyzed for NK cytotoxicity and gene expression of RA pathway genes. […]

[3] = retinol added to RBP1-transduced IDH mutant cells, to wild type expression levels

## CC1=C(/C=C/C(C)=C/C=C/C(C)=C\C(=O)O)C(C)(C)CCC1 [13-cis RA, 13-cis retinoic acid]
[1]
  toxicity in treated mice (weight loss and wasting): Higher levels of toxicity

## C=C(c1ccc(C(=O)O)cc1)c1cc2c(cc1C)C(C)(C)CCC2(C)C [Bexarotene]
[1]
  toxicity in treated mice (weight loss and wasting): Higher levels of toxicity

## CC1=C(/C=C/C(C)=C/C=C/C(C)=C/CO)C(C)(C)CCC1 [retinol]
[2]; 10 μM retinol in medium of RBP1-transduced IDH mutant cells
  recognition and killing by NK cells: significantly increased recognition and killing by NK cells
[2]; [3]
  expression of NKG2D ligands (ULBP1, ULBP3): restored expression
  expression of RA pathway genes: restored expression
